Reference: paper PMC11612144, “Deep quantification of substrate turnover defines protease subsite cooperativity” (Molecular Systems Biology, 2024)
One block for each substance: values may come before it. No end group written: not given here.

Legend:
hDPP4 = target: T1, hDPP4 (Homo sapiens, UniProt P27487); experiment: In vitro protease assay by mass spectrometry: cleavage of synthetic GLP-1 N-terminal peptides by hDPP4 over time; assay type: in vitro ADME; conditions: hDPP4 1 µg in 100 µl, peptide 1 pmol/µl, 21 °C, LC-MS, Fig. 4A; for product formation upon digestion with hDPP4 (in words): 30-120 min, three technical replicates
T1 construct: purchased Abcam ab79138
T1 sequence (P27487 whole entry): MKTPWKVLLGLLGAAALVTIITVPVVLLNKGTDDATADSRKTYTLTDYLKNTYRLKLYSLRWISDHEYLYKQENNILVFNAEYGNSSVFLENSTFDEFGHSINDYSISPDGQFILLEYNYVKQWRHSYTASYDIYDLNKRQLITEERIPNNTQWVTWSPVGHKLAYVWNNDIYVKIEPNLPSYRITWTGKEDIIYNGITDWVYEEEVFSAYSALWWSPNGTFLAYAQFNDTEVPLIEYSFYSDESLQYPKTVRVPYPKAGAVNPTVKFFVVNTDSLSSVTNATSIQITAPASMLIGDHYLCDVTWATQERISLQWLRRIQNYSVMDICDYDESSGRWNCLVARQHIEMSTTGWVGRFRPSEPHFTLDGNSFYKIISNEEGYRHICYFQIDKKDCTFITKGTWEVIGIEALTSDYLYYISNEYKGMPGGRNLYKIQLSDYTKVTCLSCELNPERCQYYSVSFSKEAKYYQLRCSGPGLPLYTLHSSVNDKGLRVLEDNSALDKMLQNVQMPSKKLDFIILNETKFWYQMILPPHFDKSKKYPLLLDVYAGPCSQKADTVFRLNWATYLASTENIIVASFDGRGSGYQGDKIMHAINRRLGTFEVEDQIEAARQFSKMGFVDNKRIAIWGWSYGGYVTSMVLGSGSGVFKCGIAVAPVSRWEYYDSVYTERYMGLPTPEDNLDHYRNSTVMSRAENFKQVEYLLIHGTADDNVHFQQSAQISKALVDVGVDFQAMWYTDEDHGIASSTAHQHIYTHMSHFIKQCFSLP
Description: Synthetic peptides representing either wild-type or mutated GLP-1 were purchased from Thermo Fisher Scientific and their cleavage by DPP4 was measured over time. Briefly, the lyophilized peptides were dissolved in TBS buffer supplemented with 2 mM TCEP to obtain a stock solution with a final concentration of 0.1 nmol/µl. 1ug of DPP4 and each peptide at a final concentration of 1 pmol/µl were used in reactions at a final volume of 100 µl. To distinguish the products, the four peptides were pooled into two groups. One group contained GLP-1 wt (HAE ([…])) & GLP-1 H1D, E3P (DAP ([…])) and the other group GLP-1 H1D (DAE ([…])) & GLP-1 E3P (HAP ([…])). The assay was performed at 21 °C, aliquots (20 µl) were taken out at the indicated times and mixed with 180 µl of 0.1% trifluoroacetic acid, 2 mM TCEP, 2% acetonitrile in water to stop the reaction.
The peptides were analyzed by capillary liquid chromatography tandem mass spectrometry (LC-MS) using an Orbitrap Fusion LUMOS, a VanquishNeo-nLC, and a 75umx15cm EasyC18 column kept at 45 °C and mounted on a easy source (Thermo Fisher Scientific). Peptides were loaded on a 0.3 × 5 mm C18 trap using a back flash method for elution. Peptides were separated with a gradient of 0–0.2 min 2–6%B in A, 0.2–4.2 min 6–21%, 4.2–6.2 min 21–30%, 6.2–6.7 min 30–36%, 6.7–7.2 min 36–45%, 7.2–7.5 min 45%-100%, 7.5-12 min 100%. A: 0.1% FA in H2O; B: 0.1% FA, 80% MeCN in H2O, at room temperature and the flow rate during the gradient was 200 nl/min and for the last 4.4 min 350 nl/min. The data were acquired using 120,000 resolution for the peptide measurements in the Orbitrap and a top T (1.5 s) method with HCD fragmentation for each precursor and fragment measurement in the ion trap following the manufacturer guidelines (Thermo Scientific).

GLP-1 receptor = conditions: compared with GLP-1(7-37); ref Mentlein et al, 1993; Muller et al, 2019; cited from earlier work
Description: To achieve clinical utility, GLP ...

[1] = target: C. elegans DPF-3 (DPP8/9-orthologue), full-length, recombinant (C. elegans); experiment: cryo-EM structure; single particle cryo-EM of full-length DPF-3 alone (apo), ~0.3 mg/ml and 2.5% glycerol, grids blotted at 4 °C; homodimer

product formation upon digestion with hDPP4 (in words) (hDPP4): completely abrogated product formation
Substance: HAPGTFTSDVSR [HAP]

time within which product formation was essentially complete (hDPP4): ≤ 30 min
Substance: HAEGTFTSDVSR [HAE, reference compound]

Continued, substance first:

Substance: GLP-1(9-37): DPP4-processed GLP-1 peptide (EGTFTSDVSSYLEGQAAKEFIAWLVKGRG; Glucagon-like peptide 1; UniProt P01275 100-128, looked up, fragment)
affinity to its receptor (in words) (GLP-1 receptor): reduced affinity

Substance: DAPGTFTSDVSR [DAP]
product formation upon digestion with hDPP4 (in words) (hDPP4): completely abrogated product formation

Substance: DAEGTFTSDVSR [DAE]
product formation upon digestion with hDPP4 (in words) (hDPP4): greatly decreased product levels at all time points and continued product accumulation over 120 min

Substance: C. elegans DPF-3 (DPP8/9-orthologue), full-length, recombinant (enzyme)
stoichiometry N [1]: 2
